Measured values from patent publication US8653100B2 (AbbVie Inc., priority 2008, dated 2014).
Structures can show the parent of a compound that is named as a salt.

Molecular target: human GlyT1c transporter (Homo sapiens (Human), UniProt P48067)
Assay: Radioligand binding assay using recombinant CHO cell membranes expressing human GlyT1
Conditions: examples 88-204, radioligand not specified by footnote, read-out: radioligand binding Kiapp
Method: 2. Radioligand binding assays using recombinant CHO cell membranes expressing human GlyT1:
Radioligand binding to human GlyT1c transporter-expressing membranes was carried out as described in Mezler et al., Molecular Pharmacology 74:1705-1715, 2008.
More specifically, [^3H]-(R)-NPTS radioligand binding to human GlyT1c transporter-expressing membranes was measured in duplicate in a total volume of 200 μl in 96-well plates. To 100 μl of membrane suspension (yielding a final membrane protein concentration of 50 μg/ml) in assay buffer (120 mM NaCl, 2 mM KCl, 10 mM Hepes, 1 mM MgCl2, 1 mM CaCl2, pH 7.5) […] of [^3H]-(R)-NPTS (0.5 nM final) were added in assay buffer. For competition experiments 10 μl of buffer or unlabeled compound solution obtained from dilution series of test compounds in DMSO followed. An intermediate 1:10 dilution in assay buffer yielded a final DMSO concentration of 1%. Non-specific binding was determined in the presence of 10 μM Org24598 (or its racemate Org24461) for [^3H]-(R)-NPTS. After incubation at room temperature for 1 h, the incubation mixture was harvested (Tomtec Mach III U Harvester) through 96-well GF/B filter plates (PerkinElmer), presoaked for 1 h with 40 μl per well of 0.1% polyethylene-imine (PEI). After washing twice with ice-cold 50 mM Tris-HCl pH 7.4 buffer, drying and addition of 35 μl scintillator (BetaplateScint, PerkinElmer) per well followed. The radioactivity was determined by liquid scintillation spectrometry in a MicroBeta (PerkinElmer) plate counter.
Data analysis: For binding of [^3H]-(R)-NPTS to cell membranes, the calculation of Kd and Bmax values from the saturation binding assays and the IC50 values from the displacement binding was performed by iterative non-linear regression analysis adapted from the ‘Ligand’ program (Munson and Rodbard, 1980). Radioligand displacement curves in absence or in presence of increasing concentrations of tested compounds were fitted using a one-site fit and the apparent Ki values were calculated from the IC50 values using the Cheng-Prusoff equation (Cheng and Prusoff 1973).

human GlyT1c transporter, sequence (P48067 whole entry): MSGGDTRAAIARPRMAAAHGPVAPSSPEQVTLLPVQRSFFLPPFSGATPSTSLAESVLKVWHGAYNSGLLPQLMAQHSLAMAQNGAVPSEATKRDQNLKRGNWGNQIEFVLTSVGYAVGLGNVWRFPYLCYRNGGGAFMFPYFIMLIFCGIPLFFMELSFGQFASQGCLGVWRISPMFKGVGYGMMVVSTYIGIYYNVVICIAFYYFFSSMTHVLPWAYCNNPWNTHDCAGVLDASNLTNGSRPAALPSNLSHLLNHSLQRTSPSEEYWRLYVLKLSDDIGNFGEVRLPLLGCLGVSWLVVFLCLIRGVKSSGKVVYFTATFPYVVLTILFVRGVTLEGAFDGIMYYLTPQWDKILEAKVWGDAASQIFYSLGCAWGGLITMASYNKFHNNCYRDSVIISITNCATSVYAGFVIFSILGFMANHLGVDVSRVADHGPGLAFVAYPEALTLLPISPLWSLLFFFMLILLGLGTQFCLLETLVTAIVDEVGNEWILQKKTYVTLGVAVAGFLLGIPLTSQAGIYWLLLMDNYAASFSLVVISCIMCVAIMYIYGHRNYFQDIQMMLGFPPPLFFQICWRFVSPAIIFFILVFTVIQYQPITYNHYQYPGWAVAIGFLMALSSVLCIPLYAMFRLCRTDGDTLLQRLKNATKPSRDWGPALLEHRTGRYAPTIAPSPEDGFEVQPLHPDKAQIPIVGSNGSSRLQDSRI

Ki | Compound
≤ 100 nM | NCCS(=O)(=O)NCCOc1ccc2c(c1)C(C1(c3ccc(Cl)cc3)CCC1)NCC2 (single isomer, unassigned) [Example 158, 2-Amino-N-[2-({1-[1-(4-chlorophenyl)cyclobutyl]-1,2,3,4-tetrahydroisoquinolin-7-yl}oxy)ethyl]ethanesulfonamide dihydrochloride]
≤ 1000 nM | O=S(=O)(NCCOc1ccc2c(c1)C(C1(c3ccc(Cl)cc3)CCC1)NCC2)C1CCCNC1 (single isomer, unassigned) [Example 164, N-[2-({1-[1-(4-Chlorophenyl)cyclobutyl]-1,2,3,4-tetrahydroisoquinolin-7-yl}oxy)ethyl]piperidine-3-sulfonamide dihydrochloride]
≤ 10000 nM | O=S(=O)(NCCOc1ccc2c(c1)C(C1(c3ccc(Cl)cc3)CCC1)NCC2)C1CCCNC1 (single isomer, unassigned) [Example 193, N-[2-({1-[1-(4-Chlorophenyl)cyclobutyl]-1,2,3,4-tetrahydroisoquinolin-7-yl}oxy)ethyl]piperidine-3-sulfonamide dihydrochloride]
≤ 100 nM | CCCS(=O)(=O)NCCNc1ccc2c(c1)C(C1(c3ccc(Cl)cc3)CCC1)NCC2 (stereo not drawn) [Example 89, N-[2-({1-[1-(4-Chlorophenyl)cyclobutyl]-1,2,3,4-tetrahydroisoquinolin-7-yl}amino)ethyl]propane-1-sulfonamide dihydrochloride]
≤ 100 nM | CCCS(=O)(=O)NCc1ccc2c(c1)C(C1(c3ccc(Cl)cc3)CCC1)NCC2 (stereo not drawn) [Example 90, N-({1-[1-(4-Chlorophenyl)cyclobutyl]-1,2,3,4-tetrahydroisoquinolin-7-yl}methyl)propane-1-sulfonamide hydrochloride]
≤ 100 nM | Cn1cc(S(=O)(=O)NCc2ccc3c(c2)C(C2(c4ccc(Cl)cc4)CCC2)NCC3)cn1 (stereo not drawn) [Example 91, N-({1-[1-(4-Chlorophenyl)cyclobutyl]-1,2,3,4-tetrahydroisoquinolin-7-yl}methyl)-1-methyl-1H-pyrazole-4-sulfonamide trifluoroacetate]
≤ 100 nM | CCCS(=O)(=O)NCCOc1ccc2c(c1)C(C1(c3ccccn3)CCC1)NCC2 (stereo not drawn) [Example 98, N-[2-({1-[1-(Pyridin-2-yl)cyclobutyl]-1,2,3,4-tetrahydroisoquinolin-7-yl}oxy)ethyl]propane-1-sulfonamide dihydrochloride]

The next lines start with the compound.

Compound | Ki
Cn1cc(S(=O)(=O)NCCOc2ccc3c(c2)C(C2(c4ccc(Cl)cc4)CC(F)(F)C2)NCC3)cn1 (single isomer, unassigned) [Example 138, N-[2-({1-[1-(4-Chlorophenyl)-3,3-difluorocyclobutyl]-1,2,3,4-tetrahydroisoquinolin-7-yl}oxy)ethyl]-1-methyl-1H-pyrazole-4-sulfonamide] | ≤ 100 nM
O=S(=O)(NCCOc1ccc2c(c1)C(C1(c3ccc(Cl)cc3)CCC1)NCC2)C1CCNC1 (single isomer, unassigned) [Example 148, N-[2-({1-[1(4-Chlorophenyl)cyclobutyl]-1,2,3,4-tetrahydroisoquinolin-7-yl}oxy)ethyl]pyrrolidine-3-sulfonamide dihydrochloride] | ≤ 100 nM
O=S(=O)(NCCOc1ccc2c(c1)C(C1(c3ccc(Cl)cc3)CCC1)NCC2)C1CCNC1 (single isomer, unassigned) [Example 151, N-[2-({1-[1-(4-Chlorophenyl)cyclobutyl]-1,2,3,4-tetrahydroisoquinolin-7-yl}oxy)ethyl]pyrrolidine-3-sulfonamide dihydrochloride] | ≤ 100 nM
O=S(=O)(NCCOc1ccc2c(c1)C(C1(c3ccc(Cl)cc3)CCC1)NCC2)C1CCCNC1 (single isomer, unassigned) [Example 160, N-[2-({1-[1-(4-Chlorophenyl)cyclobutyl]-1,2,3,4-tetrahydroisoquinolin-7-yl}oxy)ethyl]piperidine-3-sulfonamide dihydrochloride] | ≤ 100 nM
Cn1cc(S(=O)(=O)NCCOc2ccc3c(c2)C(C2(c4ccc(Cl)cc4)CC(F)(F)C2)NCC3)cn1 (single isomer, unassigned) [Example 168, N-[2-({1-[1-(4-Chlorophenyl)-3,3-difluorocyclobutyl]-1,2,3,4-tetrahydroisoquinolin-7-yl}oxy)ethyl]-1-methyl-1H-pyrazole-4-sulfonamide] | ≤ 1000 nM
O=S(=O)(NCCOc1ccc2c(c1)C(C1(c3ccc(Cl)cc3)CCC1)NCC2)C1CCNC1 (single isomer, unassigned) [Example 172, N-[2-({1-[1-(4-Chlorophenyl)cyclobutyl]-1,2,3,4-tetrahydroisoquinolin-7-yl}oxy)ethyl]pyrrolidine-3-sulfonamide dihydrochloride] | ≤ 10000 nM
O=S(=O)(NCCOc1ccc2c(c1)C(C1(c3ccc(Cl)cc3)CCC1)NCC2)C1CCNC1 (single isomer, unassigned) [Example 175, N-[2-({1-[1-(4-Chlorophenyl)cyclobutyl]-1,2,3,4-tetrahydroisoquinolin-7-yl}oxy)ethyl]pyrrolidine-3-sulfonamide dihydrochloride] | ≤ 10000 nM
O=S(=O)(NCCOc1ccc2c(c1)C(C1(c3ccc(Cl)cc3)CCC1)NCC2)C1CCCNC1 (single isomer, unassigned) [Example 192, N-[2-({1-[1-(4-Chlorophenyl)cyclobutyl]-1,2,3,4-tetrahydroisoquinolin-7-yl}oxy)ethyl]piperidine-3-sulfonamide dihydrochloride] | ≤ 10000 nM
C/C=C/S(=O)(=O)NCCOc1ccc2c(c1)C(C1(c3ccc(Cl)cc3)CCC1)NCC2 (stereo not drawn) [Example 88, (1E)-N-[2-({1-[1-(4-Chlorophenyl)cyclobutyl]-1,2,3,4-tetrahydroisoquinolin-7-yl}oxy)ethyl]prop-1-ene-1-sulfonamide hydrochloride] | ≤ 100 nM
N#Cc1ccc2c(c1)C(C1(c3ccc(Cl)cc3)CCC1)NCC2 (stereo not drawn) [Example 92, 1-[1-(4-Chlorophenyl)cyclobutyl]-1,2,3,4-tetrahydroisoquinoline-7-carbonitrile hydrochloride] | ≤ 100 nM
Cn1cnc(S(=O)(=O)NCc2ccc3c(c2)C(C2(c4ccc(Cl)cc4)CCC2)NCC3)c1 (stereo not drawn) [Example 93, N-({1-[1-(4-Chlorophenyl)cyclobutyl]-1,2,3,4-tetrahydroisoquinolin-7-yl}methyl)-1-methyl-1 H-imidazole-4-sulfonamide hydrochloride] | ≤ 100 nM
O=S(=O)(CCCF)NCc1ccc2c(c1)C(C1(c3ccc(Cl)cc3)CCC1)NCC2 (stereo not drawn) [Example 94, N-({1-[1-(4-Chlorophenyl)cyclobutyl]-1,2,3,4-tetrahydroisoquinolin-7-yl}methyl)-3-fluoropropane-1-sulfonamide hydrochloride] | ≤ 100 nM
CCCS(=O)(=O)NCc1ccc2c(c1)C(C(C)(C)c1ccc(Cl)cc1)NCC2 (stereo not drawn) [Example 96, N-({1-[2-(4-Chlorophenyl)propan-2-yl]-1,2,3,4-tetrahydroisoquinolin-7-yl}methyl)propane-1-sulfonamide hydrochloride] | ≤ 100 nM
O=S(=O)(CCO)NCCOc1ccc2c(c1)C(C1(c3ccc(Cl)cc3)CCC1)NCC2 (stereo not drawn) [Example 97, N-[2-({1-[1-(4-Chlorophenyl)cyclobutyl]-1,2,3,4-tetrahydroisoquinolin-7-yl}oxy)ethyl]-2-hydroxyethanesulfonamide hydrochloride] | ≤ 100 nM
